# Data as given in patent US20210253598A1, “ARYL ANNULATED MACROCYCLIC INDOLE DERIVATIVES” (priority 2017, published 2021).
# “And” between values parts separate entries of the source, which are not always exact repeats. Identical values can stand only once. Counter-ions that a name gives are not always drawn. Like-named read-outs stand apart in the source and are kept apart here.
# Key:
# [1] = test system: SUDHL10; experiment: Induction of caspase-3/7 activity in SUDHL10 cells (Assay 4); type: cell-based
# Method in brief: (§1)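 Luminescent Caspase-Glo 3/7 read-out in SUDHL5 and SUDHL10 cells after 3 h compound exposure at 37 °C, followed by 1 h reagent incubation.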
# [2] = test system: SUDHL10; experiment: Induction of cytotoxicity in SUDHL10 cells, CellTiter-Glo (Assay 6); type: cell-based; details: SUDHL10, 5 hours incubation, median, read-out: Cytotox SUDHL10 [M] (median)
# Method in brief: (§2)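 Run alongside apoptosis assays, this cytotoxicity measure used a 5-hour compound incubation at 37° C in humidified conditions, following overnight attachment. Cell viability was quantified by CellTiter-Glo luminescence.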
# [3] = test system: A2780; experiment: Anti-proliferative effect in A2780 cells, CellTiter-Glo (Assay 7); type: cell-based; details: Homo sapiens, A2780, 72 h, several values per example
# Method in brief: (§3)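 Overnight seeding at 37 °C, then 72 h treatment with compound; day 0 plate read at start. Luminescent ATP-based viability readout (CellTiter-Glo). IC50 normalised between day 0 and DMSO values.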
# [4] = test system: SUDHL5; experiment: Anti-proliferative effect in SUDHL5 cells, CellTiter-Glo (Assay 7); type: cell-based
# Method in brief: as §3
# [5] = test system: SUDHL5; experiment: Induction of caspase-3/7 activity in SUDHL5 cells (Assay 4); type: cell-based
# Method in brief: as §1
# [6] = test system: SUDHL5; experiment: Induction of cytotoxicity in SUDHL5 cells, CellTiter-Glo (Assay 6); type: cell-based; details: SUDHL5, 5 hours incubation, median, read-out: Cytotox SUDHL5 [M] (median)
# Method in brief: as §2
# [7] = molecular target: BCL-XL (Homo sapiens, UniProt Q07817); experiment: Protein-protein interaction assay BCL-XL/Bad BH3 peptide, TR-FRET (BCL-XL assay, Assay 2); type: binding; details: His-BCL-XL / Bad BH3 peptide, median
# Sequence of BCL-XL (Q07817 1-212): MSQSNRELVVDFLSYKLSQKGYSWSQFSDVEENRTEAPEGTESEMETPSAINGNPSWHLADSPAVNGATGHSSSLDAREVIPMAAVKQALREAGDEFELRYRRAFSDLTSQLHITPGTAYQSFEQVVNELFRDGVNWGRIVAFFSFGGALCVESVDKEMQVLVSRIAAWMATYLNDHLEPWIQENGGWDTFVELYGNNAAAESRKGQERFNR
# [8] = molecular target: T1, MCL-1 (Homo sapiens, UniProt Q07820, K194A/K197A/R201A); experiment: Protein-protein interaction assay MCL-1/Noxa BH3 peptide, TR-FRET (MCL-1 assay, Assay 1); type: binding; details: MCL-1 Assay [M] (median), MBP-MCL-1 / Noxa BH3 peptide
# T1 sequence (Q07820 173-321 K194A/K197A/R201A, looked up): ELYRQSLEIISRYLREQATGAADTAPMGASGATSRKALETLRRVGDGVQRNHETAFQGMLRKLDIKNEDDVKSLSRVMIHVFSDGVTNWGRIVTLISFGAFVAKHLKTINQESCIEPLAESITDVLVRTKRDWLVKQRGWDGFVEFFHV
# Method in brief: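 TR-FRET competition between compounds and a biotin-PEG Noxa BH3 tracer for 1 nM MBP-MCL-1 (residues 173-321). Incubation was 1 h at 22 °C in the dark, then overnight at 4 °C, in 50 mM Tris pH 7 buffer with KF and DTT, after a 10-min compound pre-equilibration. Normalized ratios were fitted with a 4-parameter Hill equation to give IC50.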
# [9] = molecular target: BCL-2 (Homo sapiens, UniProt P10415); experiment: Protein-protein interaction assay BCL-2/Bad BH3 peptide, TR-FRET (BCL-2 assay, Assay 3); type: binding; details: His-BCL-2 / Bad BH3 peptide, median
# Sequence of BCL-2 (P10415 1-211): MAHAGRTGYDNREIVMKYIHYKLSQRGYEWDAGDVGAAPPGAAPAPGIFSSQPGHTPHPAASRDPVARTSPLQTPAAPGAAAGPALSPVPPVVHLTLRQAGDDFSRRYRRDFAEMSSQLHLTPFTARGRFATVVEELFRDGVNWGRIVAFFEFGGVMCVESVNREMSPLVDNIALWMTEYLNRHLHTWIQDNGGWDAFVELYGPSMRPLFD
# [10] = test system: AMO-1; experiment: Anti-proliferative effect in AMO-1 cells, CellTiter-Glo (Assay 7); type: cell-based; details: several values per example
# Method in brief: as §3
# [11] = test system: MV-4-11; experiment: Anti-proliferative effect in MV-4-11 cells, CellTiter-Glo (Assay 7); type: cell-based; details: several values per example
# Method in brief: as §3
# [12] = molecular target: T1, MCL-1; experiment: Protein-compound interaction assay, surface plasmon resonance (SPR assay, Assay 8); type: binding; details: SPR, immobilized MBP-MCL-1, 25° C., geometric mean
# Description: Protein-Compound Interaction Assay (SPR Assay)
# The ability of the compounds described in this invention to bind to MCL-1 may be determined using surface plasmon resonance (SPR). This allows for the quantification of binding in terms of the equilibrium dissociation constant (KD [M]), as well as association and dissociation rate constants (kon [1/M 1/s] and koff [1/s], respectively). The measurements may be performed using Biacore® T200 or Biacore® S200 instruments (GE Healthcare).
# Briefly, carboxymethylated dextran biosensor chips (Series S Sensor Chip CM5, GE Healthcare) were activated with 1-ethyl-3-(3-dimethylaminopropyl)-carbodiimide hydrochloride (EDC) and N-hydroxysuccinimide (NHS) according to the supplier's instructions. MBP-MCL-1 was diluted in 1×PBS-P+ (GE Healthcare) and injected on the activated chip surface. Subsequently, a solution of 1 M ethanolamine-HCl (GE Healthcare) was injected to block unreacted groups, resulting in approximately 400-2500 response units (RU) of immobilized protein. A reference surface was generated by treatment with NHS-EDC and ethanolamine-HCl. […] Compounds were injected for 60 s followed by a dissociation time of up to 1000 s.
# The double-referenced sensorgrams were fit to a simple reversible Langmuir 1:1 reaction mechanism as implemented in the Biacore® T200 and S200 evaluation software (T200 evaluation software version 2.0 and S200 evaluation software version 1.0, GE Healthcare).
# [13] = read-out: Caspase SUDHL10 [M] (median), SUDHL10, 3 hours treatment, Caspase-Glo 3/7
# [14] = read-out: Antiproli A2780 [M], A2780, 72 hours incubation, CellTiter-Glo
# [15] = read-out: Caspase SUDHL5 [M] (median), SUDHL5, 3 hours treatment, Caspase-Glo 3/7
# [16] = read-out: Antiproli AMO-1, AMO-1, 72 hours incubation, CellTiter-Glo
# [17] = read-out: Antiproli SUDHL5 [M] (median), SUDHL5, 72 hours incubation, CellTiter-Glo
# [18] = Homo sapiens, SU-DHL10, 3 h, SUDHL10, 3 hours treatment, Caspase-Glo 3/7, median, read-out: Caspase SUDHL10 [M] (median)
# [19] = A2780, 72 hours incubation, CellTiter-Glo, read-out: Antiproli A2780
# [20] = Homo sapiens, SU-DHL-5, 72 h, SUDHL5, 72 hours incubation, CellTiter-Glo, median, read-out: Antiproli SUDHL5 [M] (median)
# [21] = Homo sapiens, SU-DHL-5, 3 h, SUDHL5, 3 hours treatment, Caspase-Glo 3/7, median, read-out: Caspase SUDHL5 [M] (median)
# [22] = Homo sapiens, AMO1, 72 h, AMO-1, 72 hours incubation, CellTiter-Glo, read-out: Antiproli AMO-1
Compound,"EC50 [1, 13] [M]",IC50 [2] [M],"IC50 [3, 14] [M]","EC50 [5, 15] [M]",IC50 [6] [M],IC50 [7] [µM],IC50 [8] [M],IC50 [9] [µM],"IC50 [10, 16]","IC50 ([2]; Homo sapiens, SU-DHL10, 5 h) [M]","IC50 [4, 17] [M]","IC50 ([6]; Homo sapiens, SU-DHL-5, 5 h) [M]",further results
"Cc1c2c(nn1C)CN(C)Cc1ccccc1Cn1c(C(=O)O)c(CCCOc3cccc4ccccc34)c3cccc-2c31 (single isomer, unassigned; enantiomer 1) [Example 15, 4,5,8-Trimethyl-17-[3-(naphthalen-1-yloxy)propyl]-7,8,9,14-tetrahydro-5H-indolo[1,7-bc]-pyrazolo[4,3-e][2,8]benzodiazacycloundecine-16-carboxylic acid-N-ethylethanamine Salt (Enantiomer 1)]",1.2e-05,1.1e-05,> 3.3e-05,2.6e-06,3.3e-06,> 20,6.9e-09,> 20,6.25e-06 M and 5.63e-06 M,–,–,–,"IC50 ([4]; Homo sapiens, SU-DHL-5, 72 h, read-out: Antiproli SUDHL5 [M] (median), SUDHL5, 72 hours incubation, CellTiter-Glo): 2.8e-06 M"
"Cc1c2c(nn1C)COCc1cccnc1Cn1c(C(=O)O)c(CCCOc3cccc4ccccc34)c3ccc(Cl)c-2c31 (single isomer, unassigned; enantiomer 1) [Example 40, 3-Chloro-4,5-dimethyl-17-[3-(naphthalen-1-yloxy)propyl]-5,7,9,14-tetrahydropyrazolo-[4′,3′:9,10]pyrido[3′,2′:3,4][1,6]oxazacycloundecino[8,7,6-hi]indole-16-carboxylic acid-N-ethylethanamine Salt (Enantiomer 1)]",–,–,2.19e-05,2.5e-06,–,19.4,–,> 20,9.07e-06 M,8.3e-06,2.2e-06,3.3e-06,"EC50 ([1]; Homo sapiens, SU-DHL10, 3 h, read-out: Caspase SUDHL10 [M] (median), SUDHL10, 3 hours treatment, Caspase-Glo 3/7): 1.4e-05 M; IC50 ([10]; Homo sapiens, AMO1, 72 h, read-out: Antiproli AMO-1 [M], AMO-1, 72 hours incubation, CellTiter-Glo): 7.53e-06 M"
"Cc1nn(C)c2c1-c1c(F)ccc3c(CCCOc4cccc5ccccc45)c(C(=O)O)n(c13)Cc1ccccc1COC2 (racemic) [Example 80, (rac)-15-Fluoro-12,14-dimethyl-1-(3-(naphthalen-1-yloxy)propyl)-4,9,11,12-tetrahydrobenzo-[3,4]pyrazolo[4′,3′:9,10][1]oxa[6]azacycloundecino[8,7,6-hi]indole-2-carboxylic Acid]",–,–,–,–,–,> 20,7.6e-09,> 20,–,> 1.1e-05,–,4.3e-06,"EC50 [1, 18]: > 2.5e-05 M; IC50 [3, 19]: 1.78e-05 M; IC50 [4, 20]: 7.7e-06 M; EC50 [5, 21]: 5.2e-06 M; IC50 [10, 22]: 2.57e-05 M"
"CCc1c2c(nn1C)COCc1ccccc1Cn1c(C(=O)O)c(CCCOc3cccc4c3CCCC4)c3ccc(F)c-2c31 (racemic) [Example 77, (rac)-14-Ethyl-15-fluoro-13-methyl-1-(3-((5,6,7,8-tetrahydronaphthalen-1-yl)oxy)propyl)-4,9,11,13-tetrahydrobenzo[3,4]pyrazolo[4′,3′:9,10][1]oxa[6]azacycloundecino[8,7,6-hi]indole-2-carboxylic Acid]",–,–,–,–,–,> 20,–,12.6,–,6.2e-06,–,3e-06,"EC50 [1, 18]: 8.4e-06 M; IC50 [3, 19]: 1.02e-05 M; IC50 [4, 20]: 5.8e-06 M; EC50 [5, 21]: 2.4e-06 M; IC50 [10, 22]: 7.22e-06 M"
"CCc1c2c(nn1C)COCc1ccccc1Cn1c(C(=O)O)c(CCCOc3cccc4cc(F)ccc34)c3ccc(F)c-2c31 (single isomer, unassigned; enantiomer 1) [Example 74, (−)-4-Ethyl-3-fluoro-17-{3-[(6-fluoronaphthalen-1-yl)oxy]propyl}-5-methyl-5,7,9,14-tetrahydroindolo[7,1-fg]pyrazolo[3,4-d][2,8]benzoxazacycloundecine-16-carboxylic acid-N-ethylethanamine Salt (Enantiomer 1)]",1.2e-06,1.4e-06,–,8.2e-07,1.1e-06,> 20,9.2e-10,19.8,1.78e-06 M,–,1.3e-06,–,"IC50 ([11]; read-out: Antiproli MV-4-11, MV-4-11, 72 hours incubation, CellTiter-Glo): 3.65e-06 M"
"Cc1c2c(nn1C)COCc1ccccc1Cn1c(C(=O)O)c(CCCOc3cccc4ccccc34)c3cccc-2c31 (single isomer, unassigned; enantiomer 2) [Example 3, 4,5-Dimethyl-17-[3-(naphthalen-1-yloxy)propyl]-5,7,9,14-tetrahydroindolo[7,1-fg]pyrazolo[3,4-d][2,8]benzoxazacycloundecine-16-carboxylic acid-N-ethylethanamine Salt (Enantiomer 2)]",–,> 3.3e-05,–,–,8.3e-06,–,2.7e-08,–,–,–,–,–,"EC50 ([1]; SUDHL10, 3 hours treatment, Caspase-Glo 3/7, median, read-out: Caspase SUDHL10 [M] (median)): > 3.3e-05 M; IC50 ([4]; SUDHL5, 72 hours incubation, CellTiter-Glo, median, read-out: Antiproli SUDHL5 [M] (median)): 7.7e-06 M; Kd ([12]; KD [M]): 1.7e-07 M; koff [12]: 0.046 s⁻¹; kon [1/M 1/s] [12]: 2.8E5 1/M 1/s; EC50 ([5]; SUDHL5, 3 hours treatment, Caspase-Glo 3/7, median, read-out: Caspase SUDHL5 [M] (median)): > 1.2e-05 M"
"CCc1c2c(nn1C)COCc1ccccc1Cn1c(C(=O)O)c(CCCOc3cccc4ccccc34)c3ccc(F)c-2c31 (single isomer, unassigned; enantiomer 1) [Example 71, (−)-4-Ethyl-3-fluoro-5-methyl-17-{3-[(naphthalen-1-yl)oxy]propyl}-5,7,9,14-tetrahydroindolo[7,1-fg]pyrazolo[3,4-d][2,8]benzoxazacycloundecine-16-carboxylic acid-N-ethylethanamine Salt (Enantiomer 1)]",4e-06,3.6e-06,9.41e-06,1.6e-06,1.9e-06,> 20,1.2e-09,12.8,3.48e-06 M,–,2.5e-06,–,"IC50 ([11]; Homo sapiens, MV4-11, 72 h, read-out: Antiproli MV-4-11 [M], MV-4-11, 72 hours incubation, CellTiter-Glo): 4.81e-06 M"
